Results taken from the supplement of paper PMC10307832.

Legend:
Test in all cases: relative viability (nuclei count vs DMSO), 5 days (fraction); higher = more cells survive
[1] = compound: C#Cc1cccc(Nc2ncnc3cc(OCCOC)c(OCCOC)cc23)c1 [Erlotinib] + Nc1ncn([C@H]2C[C@H](O)[C@@H](CO)O2)c(=O)n1 [Decitabine] (partner 2 µM)
Summary of the method: (§1)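 Values are medians from duplicate plates. Each reflects relative viability, defined as the nuclei count of treated wells over that of vehicle wells. Lung cancer cell lines in 1536-well plates were pin-tool dosed one day after seeding with one drug alone or with a fixed anchor-drug dose plus five library-drug doses (not always all listed) in √10 steps, then fixed, stained and imaged at 4× after 5 days.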

[2] = compound: O=C(Nc1c[nH]nc1-c1nc2ccc(CN3CCOCC3)cc2[nH]1)NC1CC1 [AT9283] + CS(=O)(=O)CCNCc1ccc(-c2ccc3ncnc(Nc4ccc(OCc5cccc(F)c5)c(Cl)c4)c3c2)o1 [Lapatinib] (partner 2 µM)
Summary of the method: as §1

[3] = compound: C#Cc1cccc(Nc2ncnc3cc(OCCOC)c(OCCOC)cc23)c1 [Erlotinib] + N=C(N)NC(=N)NCCc1ccccc1 [Phenformin] (partner 250 µM)
Summary of the method: as §1

[4] = compound: C#Cc1cccc(Nc2ncnc3cc(OCCOC)c(OCCOC)cc23)c1 [Erlotinib] + O=C(CCCCCCC(=O)Nc1ccccc1)NO [Vorinostat] (partner 1 µM)
Summary of the method: as §1

[5] = compound: C#Cc1cccc(Nc2ncnc3cc(OCCOC)c(OCCOC)cc23)c1 [Erlotinib] + Cc1cc(Nc2cc(N3CCN(C)CC3)nc(Sc3ccc(NC(=O)C4CC4)cc3)n2)n[nH]1 [Tozasertib] (partner 0.1 µM)
Summary of the method: as §1

Cell Line | relative viability ([1]; first compound 0.02 µM) | relative viability ([1]; first compound 0.2 µM) | relative viability ([1]; first compound 0.6325 µM) | relative viability ([1]; first compound 2 µM) | relative viability ([2]; first compound 0.003 µM) | relative viability ([2]; first compound 0.03 µM) | relative viability ([2]; first compound 0.09487 µM) | relative viability ([2]; first compound 0.3 µM) | relative viability ([3]; first compound 0.02 µM) | relative viability ([3]; first compound 0.6325 µM) | relative viability ([3]; first compound 2 µM) | relative viability ([4]; first compound 0.02 µM) | relative viability ([4]; first compound 0.2 µM) | relative viability ([4]; first compound 0.6325 µM) | relative viability ([4]; first compound 2 µM) | relative viability ([5]; first compound 0.2 µM) | relative viability ([5]; first compound 0.6325 µM) | relative viability ([5]; first compound 2 µM) | relative viability ([3]; first compound 0.2 µM) | relative viability ([5]; first compound 0.02 µM)
NCI-H1755 | 0.725 | 0.75 | 0.741 | 0.764 | 1.08 | 0.775 | 0.357 | 0.399 | 0.614 | 0.642 | 0.582 | 0.827 | 0.762 | 0.772 | 0.716 | 0.561 | 0.505 | 0.422 |  | 
LU99A |  | 0.92 | 0.983 | 0.765 | 0.846 | 0.357 | 0.188 | 0.207 | 0.942 | 0.886 | 0.841 | 0.505 | 0.507 | 0.49 | 0.468 | 0.271 | 0.263 | 0.221 | 0.794 | 0.305
LCLC-97TM1 | 0.224 | 0.254 | 0.234 | 0.256 | 0.746 | 0.15 | 0.129 | 0.126 | 0.405 | 0.439 | 0.379 |  | 0.503 | 1.01 | 0.596 | 0.204 | 0.203 | 0.172 | 0.412 | 0.285
NCI-H522 | 0.661 | 0.751 | 0.659 | 0.589 |  |  |  |  | 0.602 | 0.691 | 0.612 | 0.949 | 0.832 | 0.869 | 0.762 | 0.573 | 0.508 | 0.465 | 0.615 | 0.493
NCI-H1666 |  |  | 0.557 | 0.458 | 0.634 | 0.386 | 0.243 | 0.321 | 0.562 | 0.522 | 0.533 |  | 0.963 | 0.775 | 0.78 | 0.523 | 0.498 | 0.482 | 0.584 | 0.551
NCI-H2347 | 0.633 | 0.642 | 0.589 | 0.576 | 0.894 | 0.866 | 0.571 | 0.501 | 0.511 | 0.326 | 0.326 | 0.628 | 0.717 | 0.625 | 0.552 | 0.49 | 0.52 | 0.535 |  | 0.58
NCI-H441 | 0.232 | 0.26 | 0.215 | 0.257 |  |  |  |  | 0.883 | 0.892 |  | 0.841 | 0.725 | 0.84 | 0.745 | 0.717 | 0.574 | 0.473 | 0.863 | 0.631
HCC-78 | 0.728 | 0.743 | 0.705 | 0.584 | 0.562 | 0.587 | 0.224 | 0.196 | 0.657 | 0.684 | 0.531 | 0.428 | 0.437 | 0.36 | 0.335 | 0.289 | 0.385 | 0.402 | 0.681 | 0.407
NCI-H1648 | 0.433 | 0.512 | 0.491 | 0.39 |  |  |  |  |  |  |  | 0.528 | 0.304 | 0.501 | 0.278 | 0.434 | 0.555 | 0.252 |  | 0.489
EPLC-272H | 0.362 | 0.332 | 0.324 | 0.316 | 0.854 | 0.975 | 0.319 | 0.137 | 0.353 | 0.321 | 0.212 | 0.459 | 0.411 | 0.396 | 0.292 | 0.291 | 0.235 | 0.183 | 0.254 | 0.22
A549 | 0.263 | 0.294 | 0.266 | 0.262 | 1.02 | 0.0919 | 0.0686 | 0.0884 | 0.225 | 0.178 | 0.199 |  |  |  |  |  |  |  | 0.196 | 
NCI-H2228 |  |  |  |  | 1.06 | 0.367 | 0.115 | 0.141 | 0.414 | 0.357 | 0.257 | 0.649 | 0.591 | 0.458 | 0.476 | 0.164 | 0.169 | 0.142 | 0.338 | 0.237
NCI-H1563 |  |  |  |  | 0.941 | 0.811 | 0.843 | 0.701 | 0.63 | 0.708 | 0.6 |  |  |  |  |  |  |  | 0.602 | 
IA-LM |  |  |  |  | 0.793 | 0.27 | 0.0791 | 0.0891 |  |  |  | 0.905 | 0.72 |  | 0.744 |  |  |  |  | 
EBC-1 |  |  |  |  | 0.217 | 0.178 | 0.208 | 0.182 |  |  |  |  |  |  |  |  |  |  |  | 
NCI-H1703 |  |  |  |  | 1.24 | 0.277 | 0.31 | 0.354 |  |  |  |  |  |  |  |  |  |  |  | 
NCI-H2342 | 0.78 |  | 0.701 | 0.683 |  |  |  |  | 0.532 | 0.572 | 0.433 | 0.615 | 0.851 | 0.801 | 0.789 | 0.495 | 0.491 | 0.361 | 0.671 | 0.444
CAL-12T |  |  |  |  | 0.587 | 0.299 | 0.23 | 0.238 | 0.543 | 0.339 | 0.262 | 0.763 | 0.54 | 0.359 | 0.313 | 0.226 | 0.188 | 0.153 | 0.396 | 0.357
NCI-H1792 | 0.634 | 0.482 | 0.505 | 0.477 | 0.797 | 0.713 | 0.151 | 0.108 | 0.24 | 0.207 | 0.186 |  |  |  |  |  |  |  | 0.219 | 
SW 900 | 0.392 | 0.526 | 0.429 | 0.374 |  |  |  |  | 0.55 | 0.679 | 0.487 | 0.683 | 0.439 | 0.523 | 0.448 | 0.487 | 0.33 | 0.257 | 0.565 | 0.514
ChaGo-K-1 | 0.528 | 0.51 | 0.496 | 0.518 |  |  |  |  | 0.507 | 0.482 | 0.437 | 0.784 | 0.721 | 0.82 | 0.74 | 0.186 | 0.179 | 0.185 | 0.445 | 0.214
Calu-6 |  |  |  |  | 1.1 | 0.33 | 0.245 | 0.27 |  |  |  |  |  |  |  |  |  |  |  | 
